For 3 compounds, melting point results are on record in patent US20050119321A1, “2-substituted-1,3-thiazole compounds” (priority 2002, published 2005).

In general, melting point refers to the temperature of the solid-liquid transition. As to `COc1ccc(Nc2nc(N)c(C(C)=O)s2)cc1` [Example 3, 1-{4-Amino-2-[(4-methoxyphenyl)amino]-1,3-thiazol-5-yl}ethanone], the melting point is 180 °C (dec.).

With `COc1ccc(CCC(=O)Nc2ncc([N+](=O)[O-])s2)cc1` [Example 5, 3-(4-Methoxyphenyl)-N-(5-nitro-1,3-thiazol-2-yl)propanamide], the melting point is 224 to 227 °C (dec.).

With `COc1ccc(CCCC(=O)Nc2ncc([N+](=O)[O-])s2)cc1` [Example 6, 4-(4-Methoxyphenyl)-N-(5-nitro-1,3-thiazol-2-yl)butanamide], the melting point lay within 176 to 177 °C.
